Several values for one entry are separate records, joined by “and”; a condition that tells them apart may be missing. Identical values can stand only once.
Test: solubility of active ingredients in base oil composition
Format: physicochemical
Settings: for Loading (wt %), soluble in base oil composition: loading not marked with *
Description: The booster compositions described above include the active ingredients noted specifically for the categorical skin condition (e.g., skin brightness, skin wrinkles, visibility of pores, skin texture, and/or skin redness). In addition, the compositions cosolubilize to permit easy dispersion of the booster composition into the base oil composition. In addition to easy dispersion, the system according to the present disclosure ensures rapid homogeneity of the final products after combination of booster and base components by the consumer. In each of the booster compositions, at least one of the ingredients in the base oil composition are included in the booster compositions. For example, in one embodiment, squalane is included in each of the booster compositions. In one particularly advantageous embodiment, greater than about 20% or greater than about 25% or greater than about 30% or greater than about 35%, by weight of total composition squalane is included in each of the booster compositions. Visual assessment may be conducted to ensure cosolubility. For example, cosolubility may be determined by visual determination of incompatibility, immicible components, precipitates or other visual indicators indicating a lack of cosolubility.

SMILES	Loading (wt %), soluble in base oil composition	Loading (wt %), insoluble in base oil composition (loading marked * = Insoluble)
CCCCCCCCC(CCCCCC)C(=O)OC[C@H](OC(=O)C(CCCCCC)CCCCCCCC)[C@H]1OC(=O)C(OC(=O)C(CCCCCC)CCCCCCCC)=C1OC(=O)C(CCCCCC)CCCCCCCC (stereo partly shown) [Ascorbyl Tetraisopalmitate]	40% wt % and 50% wt % and 60% wt %	
CC(c1ccccc1)c1ccc(O)cc1O (stereo not shown) [Phenylethyl Resorcinol]	5% wt % and 10% wt % and 15% wt %	
O=C(O)c1ccccc1O [Salicylic Acid]	3% wt %	5%* wt % and 10%* wt % and 15%* wt %

— patent US20190151210A1, “METHOD AND COMPOSITION FOR TREATING SKIN CONDITIONS” (L'OREAL, priority 2016, published 2019)
